Several values for one entry are separate records, joined by “and”; a condition that tells them apart may be missing. Identical values can stand only once.
Test system: 168753-222-R-J1-PDC complex spheroid viability
Assay: Anticancer human tumor 168753-222-R-J1-PDC patient-derived bladder carcinoma cell line growth inhibition [CLK]
Conditions: for viability, T/C: stronger effect = lower value
How it was run: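 Multi-cell-type spheroids combined patient-derived tumor cells with HUVEC endothelial cells and human mesenchymal stem cells. Paired agents were dosed in half-log steps down from about clinical Cmax, or from 10 microM where Cmax was unknown.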

[1] = curve of first compound, second compound 0.0316 µM
[2] = curve of first compound, second compound 0.1 µM
[3] = curve of first compound, second compound 0.316 µM
[4] = curve of first compound, second compound 1 µM
[5] = curve of first compound, second compound 3.16 µM
[6] = curve of first compound, second compound 10 µM
[7] = second compound 0.0316 µM, first compound 0.0316 µM
[8] = second compound 0.0316 µM, first compound 0.1 µM
[9] = second compound 0.0316 µM, first compound 0.316 µM
[10] = second compound 0.0316 µM, first compound 1 µM
[11] = second compound 0.0316 µM, first compound 3.16 µM
[12] = second compound 0.0316 µM, first compound 10 µM
[13] = second compound 0.1 µM, first compound 0.0316 µM
[14] = second compound 0.1 µM, first compound 0.1 µM
[15] = second compound 0.1 µM, first compound 0.316 µM
[16] = second compound 0.1 µM, first compound 1 µM
[17] = second compound 0.1 µM, first compound 3.16 µM
[18] = second compound 0.1 µM, first compound 10 µM
[19] = second compound 0.316 µM, first compound 0.0316 µM
[20] = second compound 0.316 µM, first compound 0.1 µM
[21] = second compound 0.316 µM, first compound 0.316 µM
[22] = second compound 0.316 µM, first compound 1 µM
[23] = second compound 0.316 µM, first compound 3.16 µM
[24] = second compound 0.316 µM, first compound 10 µM
[25] = second compound 1 µM, first compound 0.0316 µM
[26] = second compound 1 µM, first compound 0.1 µM
[27] = second compound 1 µM, first compound 0.316 µM
[28] = second compound 1 µM, first compound 1 µM
[29] = second compound 1 µM, first compound 3.16 µM
[30] = second compound 1 µM, first compound 10 µM
[31] = second compound 3.16 µM, first compound 0.0316 µM
[32] = second compound 3.16 µM, first compound 0.1 µM
[33] = second compound 3.16 µM, first compound 0.316 µM
[34] = second compound 3.16 µM, first compound 1 µM
[35] = second compound 3.16 µM, first compound 3.16 µM
[36] = second compound 3.16 µM, first compound 10 µM
[37] = second compound 10 µM, first compound 0.0316 µM
[38] = second compound 10 µM, first compound 0.1 µM
[39] = second compound 10 µM, first compound 0.316 µM
[40] = second compound 10 µM, first compound 1 µM
[41] = second compound 10 µM, first compound 3.16 µM
[42] = second compound 10 µM, first compound 10 µM
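Also: viability measured after seven days of drug exposure.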
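For viability, T/C in this document: luminescence signal used as surrogate for viable cell amount; 100% = DMSO vehicle control wells.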

In the case of `C=C(F)C(=O)N1CCN(c2nc(OCC3CCCN3C)nc3c2CCN(c2cccc4cccc(Cl)c24)C3)CC1CC#N` (stereo unspecified), the viability, T/C (compound 0.0316 µM) is reported as 99.3% and 97.7%, the viability, T/C (compound 0.1 µM) is reported as 93.6% and 102% and the viability, T/C (compound 0.316 µM) is reported as 91.3% and 87.2%. For the same compound, the viability, T/C (compound 1 µM) was 95.6% and 87.8%, the viability, T/C (compound 3.16 µM) was 93.2% and 67.9% and the viability, T/C (compound 10 µM) was 70.9% and 16.5%. The IC50 (curve of compound) was > 10000 nM and 4650 nM.
For `COC1C=CCC(C)C(C)S(=O)(=O)NC(=O)c2ccc3c(c2)N(CC2CCC21)CC1(CCCc2cc(Cl)ccc21)CO3` (stereo unspecified) + CN1CCN(c2cc(C(=O)Nc3cc4cc(-c5cnn(C)c5)ccc4cn3)ccn2)CC1, the IC50 [1] was 936 nM, the IC50 [2] was 191 nM and the IC50 [3] was under 31.6 nM. It also gave an IC50 [4] of under 31.6 nM, an IC50 [5] of under 31.6 nM and an IC50 [6] of under 31.6 nM. The viability, T/C [7] was 77.2%, the viability, T/C [8] was 101% and the viability, T/C [9] was 68.9%. The viability, T/C [10] was 48.4%, the viability, T/C [11] was 27.6% and the viability, T/C [12] was 14.2%. The viability, T/C [13] was 67.5%, the viability, T/C [14] was 58.4% and the viability, T/C [15] was 43.9%. For the same compound, the viability, T/C [16] was 21.8%, the viability, T/C [17] was 18% and the viability, T/C [18] was 12.6%. For the same compound, the viability, T/C [19] was 17.1%, the viability, T/C [20] was 12.4% and the viability, T/C [21] was 13.3%. For the same compound, the viability, T/C [22] was 8.91%, the viability, T/C [23] was 9.07% and the viability, T/C [24] was 3.48%. It also gave a viability, T/C [25] of 0.33%, a viability, T/C [26] of 3.47% and a viability, T/C [27] of 0.21%. It also gave a viability, T/C [28] of 0.82%, a viability, T/C [29] of 2.3% and a viability, T/C [30] of 1.79%. It also gave a viability, T/C [31] of 0.17%, a viability, T/C [32] of 0.15% and a viability, T/C [33] of 3.67%. For the same compound, the viability, T/C [34] was 0.12%, the viability, T/C [35] was 0.15% and the viability, T/C [36] was 0.59%. It also gave a viability, T/C [37] of 0.4%, a viability, T/C [38] of 0.21% and a viability, T/C [39] of 2.52%. It also gave a viability, T/C [40] of 0.21%, a viability, T/C [41] of 0.23% and a viability, T/C [42] of 1.62%.
`C#Cc1c(F)ccc2cc(O)cc(-c3ncc4c(N5CC6CCC(C5)N6)nc(OCC56CCCN5CC(F)C6)nc4c3F)c12` (stereo unspecified) + CN1CCN(c2cc(C(=O)Nc3cc4cc(-c5cnn(C)c5)ccc4cn3)ccn2)CC1 showed an IC50 [1] of over 10000 nM, an IC50 [2] of 1850 nM and an IC50 [3] of under 31.6 nM. It also gave an IC50 [4] of under 31.6 nM, an IC50 [5] of under 31.6 nM and an IC50 [6] of under 31.6 nM. The viability, T/C [7] was 105%, the viability, T/C [8] was 107% and the viability, T/C [9] was 101%. For the same compound, the viability, T/C [10] was 103%, the viability, T/C [11] was 96.4% and the viability, T/C [12] was 70.3%. It also gave a viability, T/C [13] of 77.7%, a viability, T/C [14] of 64.7% and a viability, T/C [15] of 63.9%. It also gave a viability, T/C [16] of 64.2%, a viability, T/C [17] of 37.4% and a viability, T/C [18] of 38%. For the same compound, the viability, T/C [19] was 14.7%, the viability, T/C [20] was 14.6% and the viability, T/C [21] was 11.8%. It also gave a viability, T/C [22] of 12%, a viability, T/C [23] of 12.1% and a viability, T/C [24] of 7.39%. For the same compound, the viability, T/C [25] was 0.54%, the viability, T/C [26] was 0.65% and the viability, T/C [27] was 1.92%. For the same compound, the viability, T/C [28] was 0.88%, the viability, T/C [29] was 0.75% and the viability, T/C [30] was 0.34%. For the same compound, the viability, T/C [31] was 2.41%, the viability, T/C [32] was 0.59% and the viability, T/C [33] was 1.48%. The viability, T/C [34] was 0.13%, the viability, T/C [35] was 0.39% and the viability, T/C [36] was 0.22%. It also gave a viability, T/C [37] of 0.18%, a viability, T/C [38] of 0.32% and a viability, T/C [39] of 0.39%. For the same compound, the viability, T/C [40] was 0.2%, the viability, T/C [41] was 0.57% and the viability, T/C [42] was 3.73%.

— PubChem BioAssay AID2060626 (Molecular Pharmacology Branch, DTP, NCI, 2025)
